Counter-ions that a name gives are not always drawn. Like-named read-outs stand apart in the source and are kept apart here.
How the values were obtained:
Format in all cases: cell-based
[1] = system: human lung cancer cell line H1299; test: Caspase cascade activation in H1299 cells; details: NCI-H1299, 24 h, read-out: Caspase activation Potency EC50 H1299 (24 h)
How it was run: (§1)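 Cells were exposed to compound at 0.016 to 10 μM final for 24 h or 48 h at 37 °C. They were then lysed with 14 μM N-(Ac-DEVD)-N′-ethoxycarbonyl-R110 in lysolecithin/DTT/PIPES buffer pH 7.2 for 3 h at room temperature (ex 485/em 530 nm). EC50 came from a sigmoidal fit of net RFU relative to untreated control.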

[2] = system: human colon carcinoma cell line HCT116; test: Caspase cascade activation in HCT116 cells; details: Homo sapiens, HCT-116, 48 h, read-out: Caspase activation Potency EC50 HCT116 (48 h)
How it was run: as §1

[3] = system: human breast cancer cell line T-47D; test: Caspase cascade activation (DEVD-R110 fluorogenic substrate) in T-47D cells; details: Homo sapiens, T47D
How it was run: as §1

[4] = system: human breast cancer cell line MDAMB435; test: Inhibition of cell proliferation (GI50) in MDAMB435 cells
Procedure: (§2) Human breast cancer cell lines T-47D, MX-1 and MDAMB435, human colon cancer cell line HT29, and human lung cancer cell line H1299 were grown and harvested as in Example 75. An aliquot of […] of cells (4.4×10^4 cells/mL) was added to a well of a 96-well microtiter plate containing 5 μL of a 10% DMSO in RPMI-1640 media solution containing 10 nM to 100 μM of N-(2,5-dimethoxyphenyl)-2-methylthieno[3,2-d]pyrimidin-4-amine (1 nM to 10 μM final). An aliquot of 45 μL of cells was added to a well of a 96-well microtiter plate containing 5 μL of a 10% DMSO in RPMI-1640 media solution without compound as the control sample for maximal cell proliferation (Lmax). The samples were mixed by agitation and then incubated at 37° C. for 48 h in a 5% CO2-95% humidity incubator. After incubation, the samples were removed from the incubator and 25 μL of CellTiter-Glo™ reagent (Promega) was added. The samples were mixed by agitation and incubated at room temperature for 10-15 min. Plates were then read using a luminescent plate reader (Model SPECTRAfluor Plus, Tecan) to give Ltest values.
(§3) Baseline for GI50 (dose for 50% inhibition of cell proliferation) of initial cell numbers was determined by adding an aliquot of 45 μL of cells or 45 μL of media, respectively, to wells of a 96-well microtiter plate containing 5 μL of a 10% DMSO in RPMI-1640 media solution. The samples were mixed by agitation and then incubated at 37° C. for 0.5 h in a 5% CO2-95% humidity incubator. After incubation, the samples were removed from the incubator and 25 μL of CellTiter-Glo™ reagent (Promega) was added. The samples were mixed by agitation and incubated at 37° C. for 10-15 min at room temperature in a 5% CO2-95% humidity incubator. Fluorescence was read as above, (LStart) defining luminescence for initial cell number used as baseline in GI50 determinations.
(§4) GI50 (dose for 50% inhibition of cell proliferation) is the concentration where [(LTest−Lstart)/(LMax−Lstart)]=0.5.

[5] = system: human colon carcinoma cell line HCT116; test: Inhibition of cell proliferation (GI50) in HCT116 cells; details: HCT-116, Table IV, read-out: GI50 in Multi-Cancer Cells HCT116
Procedure: as §2, §3, §4
(§5) Several compounds were tested in multi cancer cell lines, including human breast cancer cell lines T-47D, MX-1, SKBR3 and MDAMB435, human hepatocellular carcinoma cell line SNU398, human colon carcinoma cell line HCT116, human sarcoma cell line MES-SA and multi-drug resistant (MDR) human sarcoma cell line MES-SA/ADR, murine leukemia cell line P388 and multi-drug resistant (MDR) murine leukemia cell line P388ADR, and the data are summarized in Table IV.

[6] = system: human hepatocellular carcinoma cell line SNU398; test: Inhibition of cell proliferation (GI50) in SNU398 cells; details: SNU-398, Table IV, read-out: GI50 in Multi-Cancer Cells SNU398
Procedure: as §2, §3, §4, §5

[7] = system: human breast cancer cell line T-47D; test: Inhibition of cell proliferation (GI50, CellTiter-Glo) in T-47D cells; details: T47D cells
Procedure: as §2, §3, §4

[8] = system: human breast cancer cell line MX-1; test: Inhibition of cell proliferation (GI50) in MX-1 cells; details: MX1 cells
Procedure: as §2, §3, §4

[9] = 24 h, T47D cells, 24 h, read-out: Caspase activation Potency EC50 T47D (24 h)
[10] = 48 h, T-47D cells, 48 h, read-out: Caspase activation Potency EC50 T-47D (48 h)
[11] = MDA-MB-435, Table IV, read-out: GI50 in Multi-Cancer Cells MDAMB435
[12] = Table IV, read-out: GI50 in Multi-Cancer Cells T47D
[13] = Table IV, read-out: GI50 in Multi-Cancer Cells MX1

Row | EC50 [1] | EC50 [2] | EC50 [3, 9] | EC50 [3, 10] | GI50 ([4]; MDA-MB-435, Table III, 48 h, read-out: GI50 in Cancer Cells MDAMB435) | GI50 [4, 11] | GI50 [5] | GI50 [6] | GI50 ([7]; Table III, 48 h, read-out: GI50 in Cancer Cells T47D) | GI50 [7, 12] | GI50 ([8]; Table III, 48 h, read-out: GI50 in Cancer Cells MX1) | GI50 [8, 13] | Compound
1 | 2910 nM | 5000 nM | 61 nM | 105 nM | 756 nM | 1070 nM | 4980 nM | 2100 nM | 65 nM | 340 nM | 300 nM | 800 nM | COc1ccc(OC)c(Nc2ncnc3ccsc23)c1 [Example 2, N-(2,5-Dimethoxyphenyl)thieno[3,2-d]pyrimidin-4-amine]
2 | 303 nM | 279 nM | 38 nM | 62 nM |  | 105 nM | 1250 nM | 706 nM |  | 20 nM |  | 17 nM | COc1cc(Nc2ncnc3ccsc23)cc(OC)c1 [Example 12, N-(3,5-Dimethoxyphenyl)thieno[3,2-d]pyrimidin-4-amine hydrochloride]
